Test results taken from patent US20040166509A1, “Detecting hormonally active compounds” (priority 2002, published 2004).

Test system: liver cDNAs of adult male LMB
Test: LMB gene arrays of SSH-derived cDNAs: liver of fish treated with androgens
Type: in vivo, largemouth bass (LMB)
Conditions: DHT 62.5 μg/g, 11-KT 20 μg/g vs DMSO
Experimental: For each cDNA clone, the general background of each membrane was subtracted from the average value of the duplicate spots on the membrane. The values were then normalized to the average value of seven cDNA clones specific to ribosomal genes and the fold change calculated by dividing the mean of each treatment by the mean of the control. Those genes which changed by 2-fold or more were graphed. Significant differences (p<0.05) were determined by ANOVA and secondary testing was done by using […].

C[C@]12CC(=O)[C@H]3[C@@H](CCC4=CC(=O)CC[C@@]43C)[C@@H]1CC[C@@H]2O [11-KT, 11-ketotestosterone]
24-1 (LOC L1) change: down
ALPHA TUBULIN (LOC M2) change: down
COMPLEMENT C3 (LOC L3) change: down
CYSTATIN (LOC O3) change: down-regulated
ER GAMMA 5′ 2F (LOC L14) change: down
EST SEASONAL 9 (LOC D13) change: up (Those genes which changed by 2-fold or more were graphed)
EST SEASONAL 51 (LOC K11) change: down
EST SEASONAL 55 (LOC M4) change: down
EST SEASONAL 62 (LOC B14) change: up (Those genes which changed by 2-fold or more were graphed)
EST SEASONAL 64 (LOC H7) change: up (Those genes which changed by 2-fold or more were graphed)
EST SEASONAL 72 (LOC K12) change: down
EST SEASONAL F21 (LOC O13) change: down
ESTP4_H07 (LOC K13) change: up (Those genes which changed by 2-fold or more were graphed)
GP3 11C (LOC K1) change: down
LDL RC (LOC J10) change: down
LMB24-1 (Unknown) differentially expressed by androgens: dn-reg DHT;
LMB151 vitellogenin receptor differentially expressed by: Dn-reg
LMB CYSTATIN-PREC (Cystatin precursor) differentially expressed by: Dn-reg 11-KT
LMB EST--SEASONAL_64 differentially expressed by: up-reg DHT;
LMB EST--SEASONAL_72 differentially expressed by: Dn-reg DHT;
LMB EST--SEASONAL_F17 differentially expressed by: Dn-reg 11-KT
LMB EST-SEASONAL_55 differentially expressed by: Dn-reg 11-KT;
LMB EST-SEASONALf17 differentially expressed by: down by 11KT
LMB RIKEN 1110001M01 differentially expressed by: up by 11KT;
LMB_ALPHA-TUBULIN (alpha tubulin) differentially expressed by: Dn-reg 11-kt;
LMB_COMPLEMENT-C3 (Complement C3 precursor) differentially expressed by: Dn-reg DHT;
LMB_ER-GAMMA ESTROGEN RECEPTOR GAMMA differentially expressed by (11-KT): Dn-reg 11-KT;
LMB_EST-SEASONAL_09 differentially expressed by: up-reg DHT;
LMB_EST-SEASONAL_11 differentially expressed by: dn-reg 11-KT
LMB_EST-SEASONAL_51 differentially expressed by: dn 11-KT;
LMB_ESTDHT64 differentially expressed by: up by 11KT
LMB_ESTDHT_62 differentially expressed by: up-reg DHT;
LMB_LDL RC (LDL receptor) differentially expressed by: Dn-reg DHT;
LMB_RXR INTERACT PROT (Retinoid X receptor interacting protein) differentially expressed by: Dn-reg 11-KT;
LMB_SOL-CAR-25A#5 (solute carrier family 25 alpha member 5) differentially expressed by: up-reg DHT;
LMB_SSAT (SSAT) differentially expressed by: up-reg DHT;
LMB_WARM-WATER ACC PROTEIN (Warm water acclimation-related protein) differentially expressed by: up-reg 11-KT
LMB_ZPC1 (ZPC1) differentially expressed by: up-reg DHT;
LMB_ZPC4 (ZPC4) differentially expressed by: up-reg DHT;
PTTP (LOC O10) change: up-
RETINOL DEHYDROGENASE (LOC M11) change: up (Those genes which changed by 2-fold or more were graphed)
RIKEN 1110001M01 (LOC O11) change: up (Those genes which changed by 2-fold or more were graphed)
RXR INTERACTING PROT (LOC L11) change: down
SOLUTE CARRIER (LOC B13) change: up (Those genes which changed by 2-fold or more were graphed)
SSAT (LOC C13) change: up (Those genes which changed by 2-fold or more were graphed)
TFIID (change to liver regeration related protein) (LOC M12) change: down
VTG PRECURSOR (LOC D14) change: up (Those genes which changed by 2-fold or more were graphed)
VTG RC (LOC M14) change: down
ZPC1 (LOC H14) change: up (Those genes which changed by 2-fold or more were graphed)
ZPC4 (LOC I14) change: up (Those genes which changed by 2-fold or more were graphed)
warm water acclim (LOC E14) change: up (Those genes which changed by 2-fold or more were graphed)

C[C@]12CCC(=O)C[C@@H]1CC[C@@H]1[C@@H]2CC[C@]2(C)[C@@H](O)CC[C@@H]12 [DHT, dihydrotestosterone]
24-1 (LOC L1) change: down
53-1 (LOC B2) change: down
68-1 (LOC C2) change: down
97-8 (LOC F2) change: up (Those genes which changed by 2-fold or more were graphed)
ALDOLASE B (LOC K2) change: down
ALPHA 1 ANTI-TRYPSIN (LOC L2) change: down
ALPHA TUBULIN (LOC M2) change: down
APOL[…] (LOC C3) change: down
ATP SYNTHASE (LOC K7) change: up (Those genes which changed by 2-fold or more were graphed)
ATPASE 6 (LOC E3) change: up (Those genes which changed by 2-fold or more were graphed)
ATPASE SUBUNIT 6 (LOC F9) change: up (Those genes which changed by 2-fold or more were graphed)
COMPLEMENT C3 (LOC L3) change: down
CYSTATIN (LOC O3) change: down
ER GAMMA 5′ 2F (LOC L14) change: down
EST DHT64 (LOC D4) change: up (Those genes which changed by 2-fold or more were graphed)
EST P4_06 (LOC L8) change: up (Those genes which changed by 2-fold or more were graphed)
EST P4_D08 (LOC N8) change: up (Those genes which changed by 2-fold or more were graphed)
EST SEASONAL 9 (LOC D13) change: up (Those genes which changed by 2-fold or more were graphed)
EST SEASONAL 11 (LOC O6) change: down
EST SEASONAL 12 (LOC B8) change: up (Those genes which changed by 2-fold or more were graphed)
EST SEASONAL 42 (LOC H10) change: down
EST SEASONAL 51 (LOC K11) change: down
EST SEASONAL 55 (LOC M4) change: down
EST SEASONAL 56 (LOC F12) change: up (Those genes which changed by 2-fold or more were graphed)
EST SEASONAL 62 (LOC B14) change: up (Those genes which changed by 2-fold or more were graphed)
EST SEASONAL 64 (LOC H7) change: up (Those genes which changed by 2-fold or more were graphed)
EST SEASONAL 72 (LOC K12) change: down
EST SEASONAL 88 (LOC E12) change: up (Those genes which changed by 2-fold or more were graphed)
EST SEASONAL 90 (LOC L9) change: down
EST SEASONAL F17 (LOC B9) change: down
EST SEASONAL F21 (LOC O13) change: down
ESTDHT60 (LOC F5) change: down
ESTP4_C04 (LOC G9) change: down
ESTP4_E01 (LOC K5) change: down
ESTP4_E06 (LOC D6) change: down
ESTP4_H07 (LOC K13) change: up (Those genes which changed by 2-fold or more were graphed)
GP3 11C (LOC K1) change: down
G[…] (LOC G5) change: down-regulated and down
HAPTOGLOBIN (LOC I5) change: down
HEPCIDIN (LOC J5) change: down
IGF-I (LOC M5) change: down
LDL RC (LOC J10) change: down
LMB24-1 (Unknown) differentially expressed by androgens: dn-reg DHT;
LMB53-1 (unknown) differentially expressed by androgens: Down-reg. E2;
LMB68-1 (hypothetical protein) differentially expressed by: Dn-reg DHT
LMB97 choriogenin-3 differentially expressed by androgens: Up-reg E2;
LMB112-1 cathepsin (Aspartic protease) differentially expressed by androgens: up-reg E; NP:
LMB151 vitellogenin receptor differentially expressed by: Dn-reg
LMB CIS-RETIN DEHYDRO (cis-retinol dehydrogenase) differentially expressed by: up-reg DHT
LMB EST--SEASONAL_64 differentially expressed by: up-reg DHT;
LMB EST--SEASONAL_72 differentially expressed by: Dn-reg DHT;
LMB EST--SEASONAL_88 differentially expressed by: up-reg DHT;
LMB EST--SEASONAL_90 differentially expressed by: dn-reg DHT
LMB EST--SEASONAL_F21 differentially expressed by: Dn-reg DHT
LMB EST-SEASONAL_55 differentially expressed by: Dn-reg 11-KT;
LMB EST-SEASONAL_56 differentially expressed by: up-reg DHT;
LMB GLUT-PEROX III (Glutathione peroxidase III) differentially expressed by: Dn-reg DHT
LMB LIV-REGER-PROT differentially expressed by: down by DHT
LMB RIKEN 1110001M01 differentially expressed by: up by 11KT;
LMB_ALPHA-TUBULIN (alpha tubulin) differentially expressed by: Dn-reg 11-kt;
LMB_ATPASE 6 (ATPase subunit 6) differentially expressed by: up-reg DHT
LMB_COMPLEMENT-C3 (Complement C3 precursor) differentially expressed by: Dn-reg DHT;
LMB_EST-SEASONAL_09 differentially expressed by: up-reg DHT;
LMB_EST-SEASONAL_12 differentially expressed by: up-reg DHT
LMB_EST-SEASONAL_51 differentially expressed by: dn 11-KT;
LMB_ESTDHT_62 differentially expressed by: up-reg DHT;
LMB_ESTP4-E01 differentially expressed by: down by DHT
LMB_HAPTOGLOBIN (Haptoglobin) differentially expressed by: Dn-reg DHT
LMB_HEPCIDIN (Hepcidin precursor) differentially expressed by: dn-reg DHT
LMB_LDL RC (LDL receptor) differentially expressed by: Dn-reg DHT;
LMB_LECTIN STL2 (Rhamnose binding lectin STL2) differentially expressed by: up-reg DHT
LMB_MITOCHON-ATP-SYNTHASE (ATP synthase alpha chain mitochondrial precursor) differentially expressed by: up-reg DHT
LMB_RXR INTERACT PROT (Retinoid X receptor interacting protein) differentially expressed by: Dn-reg 11-KT;
LMB_SOL-CAR-25A#5 (solute carrier family 25 alpha member 5) differentially expressed by: up-reg DHT;
LMB_SSAT (SSAT) differentially expressed by: up-reg DHT;
LMB_ZPC1 (ZPC1) differentially expressed by: up-reg DHT;
LMB_ZPC4 (ZPC4) differentially expressed by: up-reg DHT;
PTTP (LOC O10) change: up (Those genes which changed by 2-fold or more were graphed)
RETINOL DEHYDROGENASE (LOC M11) change: up (Those genes which changed by 2-fold or more were graphed)
RHAMNOSE BINDING LECTIN (LOC G13) change: up (Those genes which changed by 2-fold or more were graphed)
RIKEN 1110001M01 (LOC O11) change: up (Those genes which changed by 2-fold or more were graphed)
RIKEN 2700038C09 (LOC D12) change: down
RXR I[…] (LOC L11) change: down
SOLUTE CARRIER (LOC B13) change: up (Those genes which changed by 2-fold or more were graphed)
SSAT (LOC C13) change: up (Those genes which changed by 2-fold or more were graphed)
TFIID (change to liver regeration related protein) (LOC M12) change: down
TFIIIA (LOC J13) change: up (Those genes which changed by 2-fold or more were graphed)
UNNAMED PROTEIN (LOC C14) change: up (Those genes which changed by 2-fold or more were graphed)
VTG PRECURSOR (LOC D14) change: up (Those genes which changed by 2-fold or more were graphed)
VTG RC (LOC M14) change: down
ZPC1 (LOC H14) change: up (Those genes which changed by 2-fold or more were graphed)
ZPC4 (LOC I14) change: up (Those genes which changed by 2-fold or more were graphed)
warm water acclim (LOC E14) change: up (Those genes which changed by 2-fold or more were graphed)
